Test results as given in patent US4940714A, “2-substituted carbonylimidazo[4,5-c]quinolines” (Shionogi & Co., Ltd., priority 1988, dated 1990).

Key:
Benzodiazepine Receptor = test: Test on Binding to Benzodiazepine Receptor (inhibition of specific binding of tritium-labeled diazepam); parameters: species or system male Wistar rats (cerebral cortex); settings: 2 nM tritium-labeled diazepam, 0° C., 60 minutes, rat cerebral cortex receptor preparation
Procedure: Test on Binding to Benzodiazepine Receptor
This test was carried out modifying partially a method of Mohler & Okada, Science, 198, 849-851 (1977). Receptor preparation was provided from the cerebral cortex of male Wistar rats (11-13 weeks age). Inhibitory action of the test compound on the specific binding of tritium-labeled diazepam to the receptor was evaluated as follows: 2 nM tritium-labeled diazepam and an aqueous solution of the test compound in 5 or 6 different concentrations were incubated with the receptor preparation at 0° C. for 60 minutes. The 50% inhibitory concentration (IC50) was measured by the concentration-response curve. In addition, the inhibitory constant (Ki) of the test compound was calculated by dissociation constant (Kd) and concentration (L) of the tritium-labeled diazepam.

[1] = tested on: Pentylenetetrazole-Induced Convulsion; test: Potentiation of Pentylenetetrazole-Induced Convulsion (inverse agonist activity); format: in vivo; settings: Mus musculus; intravenous injection; pentylenetetrazole 90 mg/kg subcutaneous; 2-hour observation; male mice; probit method; read-out: ED50 (dose required to produce tonic convulsion and death in 50% of the animals)
Procedure: Potentiation of Pentylenetetrazole-Induced Convulsion
(§1) Inverse agonist activity was evaluated in this Experiment. Pentylenetetrazole was subscutaneously administered male mice (a group of 8-16 male mice was employed in each test) at a dose of 90 mg/kg immediately after intravenous injection of the test compound. The dose (ED50) required to produce tonic convulsion and death in 50% of the aminals during subsequent 2-hour observation period was calculated by the probit method.

[2] = tested on: Pentylenetetrazole-Induced Convulsion; test: Antagonism of Pentylenetetrazole-Induced Convulsion (agonistic activity); format: in vivo; settings: Mus musculus; intravenous injection; pentylenetetrazole 125 mg/kg subcutaneous; 2-hour observation; male mice; probit method; read-out: ED50 (dose required to prevent tonic convulsion and death in 50% of the animals)
Procedure: Anatagonism of Pentylenetetrazole-Induced Convulsion
as §1, with “Agonistic” for “Inverse agonist”, “125” for “90”, “prevent” for “produce”, “animals” for “aminals”

learning and memory [3] = settings: M. Sarter et al., TINS 11, 13 (1988); cited from earlier work
learning and memory [4] = settings: M. Sarter et al., TINS 11, 13 (1988); cited from earlier work; remark: listed apart in the source

With `O=C(c1nc2cnc3ccccc3c2[nH]1)C1CC1` [Ic-1, 2-Cyclopropylcarbonyl-1H-imidazo[4,5-c]quinoline] the Ki (Benzodiazepine Receptor) was 0.357 nM.
Molecule `CCC(=O)c1nc2cnc3ccccc3c2[nH]1` [Ic-4] has a Ki (Benzodiazepine Receptor) of 0.409 nM.
Molecule `CCCC(=O)c1nc2cnc3ccccc3c2[nH]1` [Ic-6] has a Ki (Benzodiazepine Receptor) of 0.432 nM and an ED50 [1] of 1 mg/kg.
With `CCCCCCC(=O)c1nc2cnc3ccccc3c2[nH]1` [Ic-9] the Ki (Benzodiazepine Receptor) was 6.11 nM and the ED50 [2] was 3.21 mg/kg.
`CC(C)C(=O)c1nc2cnc3ccccc3c2[nH]1` [Ic-14] gave a Ki (Benzodiazepine Receptor) of 1.24 nM and an ED50 [1] of 0.2 mg/kg.
For `CCC(C)C(=O)c1nc2cnc3ccccc3c2[nH]1` (stereo not shown) [Ic-18], the Ki (Benzodiazepine Receptor) was 3.6 nM.
Work on `O=C(c1nc2cnc3ccc(F)cc3c2[nH]1)C1CC1` [Ic-21] yielded a Ki (Benzodiazepine Receptor) of 0.5 nM.
Molecule `COc1ccc2c(c1)ncc1nc(C(=O)C3CC3)[nH]c12` [Ic-22] has a Ki (Benzodiazepine Receptor) of 1.9 nM and an ED50 [1] of 0.15 mg/kg.
For `C/C=C/C(=O)c1nc2cnc3ccccc3c2[nH]1` [Ic-27], the Ki (Benzodiazepine Receptor) was 13.1 nM and the ED50 [2] was 2.47 mg/kg.
`CSCCC(=O)c1nc2cnc3ccccc3c2[nH]1` [Ic-31] showed a Ki (Benzodiazepine Receptor) of 1.5 nM.
`O=C(c1nc2cnc3ccccc3c2[nH]1)c1ccc(Cl)s1` [Ic-36, 2-[(5-Chlorothiophen-2-yl)carbonyl]-1H-imidazo[4,5-c]quinoline] gave an ED50 [2] of 0.46 mg/kg.
For `O=C(c1nc2cnc3ccccc3c2[nH]1)c1ccccc1F` [Ic-37], the Ki (Benzodiazepine Receptor) was 2.21 nM.
Work on `O=C(c1cccc(F)c1)c1nc2cnc3ccccc3c2[nH]1` [Ic-38] yielded an ED50 [2] of 1.12 mg/kg.
For `O=C(c1ccc(Cl)cc1)c1nc2cnc3ccccc3c2[nH]1` [Ic-41], the Ki (Benzodiazepine Receptor) was 8.33 nM.
With `CSc1ccc(C(=O)c2nc3cnc4ccccc4c3[nH]2)cc1` [Ic-45] the Ki (Benzodiazepine Receptor) was 3.2 nM and the ED50 [2] was 0.88 mg/kg.
In the case of `O=C(c1cccnc1)c1nc2cnc3ccccc3c2[nH]1` [Ic-49], the Ki (Benzodiazepine Receptor) is reported as 1.8 nM.
Work on `O=C(c1nc2cnc3ccccc3c2[nH]1)c1cccs1` [Ic-50] yielded a Ki (Benzodiazepine Receptor) of 0.819 nM.
With `O=C(c1nc2cnc3ccccc3c2[nH]1)c1ccco1` [Ic-56] the Ki (Benzodiazepine Receptor) was 1.07 nM.
In the case of `Cc1cc(C(=O)c2nc3cnc4ccccc4c3[nH]2)no1` [Ic-60], the Ki (Benzodiazepine Receptor) is reported as 0.373 nM and the ED50 [1] is reported as 0.71 mg/kg.
Work on `CCOC(=O)c1nc2cnc3ccccc3c2[nH]1` [Ic-64, 2-Ethoxycarbonyl-1H-imidazo[4,5-c]quinoline] yielded an ED50 [1] of 0.31 mg/kg.
`CCNC(=O)c1nc2cnc3ccccc3c2[nH]1` [Ic-67] gave an ED50 [1] of 0.35 mg/kg.
`O=C(c1ccccc1)c1nc2cnc3ccccc3c2[nH]1` [Id-2] showed an ED50 [2] of 1.06 mg/kg.
In the case of `CN1C(=O)CN=C(c2ccccc2)c2cc(Cl)ccc21` [diazepam], the “performance (learning and memory) in humans” value (learning and memory [3]) is given as “impairs such performance”.
For `COC(=O)c1cc2c(cn1)[nH]c1ccccc12` [methyl β-carbonline-3-carboxylate], the “performance in several animal models of learning and memory” value (learning and memory [4]) is listed as “enhances the performance”.
